Measurements published in patent publication US9938261B2, “Heterocyclic compounds and methods of use thereof” (AMBIT BIOSCIENCES CORPORATION, priority 2011, dated 2018).
pIC50, pKd: −log10 of the molar value.

Experiments:
PDGFRβ = target: T1, PDGFRβ (Homo sapiens, UniProt P09619); experiment: Competition binding assay, PDGFRβ Kd; conditions: competition binding
T1 construct: made in house
Summary of the method: (§1)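 First, biotinylated affinity ligands were loaded onto streptavidin magnetic beads and blocked. Kinase, beads and compound were then equilibrated 1 hour at room temperature, washed, and eluted with non-biotinylated ligand. Eluted kinase was measured by qPCR, with Kd fitted from an eleven-point threefold dilution series.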

M-NFS-60 cells = experiment: M-NFS-60 cell proliferation assay (Alamar Blue); assay type: cell-based, mouse; conditions: Mus musculus; M-NFS-60 cell proliferation; read-out: CSF1R M-NFS-60 CTB:IC50
Summary of the method: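 Alamar Blue reduction (3 h; 560/590 nm) measured viability after 72 h, 37 °C treatment with nine half-log compound concentrations at 0.5% DMSO. Cells: M-CSF-dependent (20 ng/mL) murine M-NFS-60 in RPMI plus 10% FBS. IC50s, averaged from duplicates, reflect half-maximal inhibition of proliferation relative to control.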

[1] = target: kinase panel containing either 386 or 392 distinct kinases; experiment: Kinase selectivity score S10 from competition binding panel; conditions: 10 μM, panel of 386 or 392 distinct kinases
Summary of the method: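 S10 is the number of kinases with percent-of-control under 10, divided by all distinct wild-type kinases tested, from a single 10 μM concentration. Binding measured by qPCR of kinase recovered from ligand-coated beads after 1 h equilibrium at room temperature; kinases were phage fusions or DNA-tagged HEK-293 products.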

KIT = target: T2, KIT (Homo sapiens, UniProt P10721); experiment: Competition binding assay, KIT Kd; conditions: competition binding
T2 construct: made in house
Summary of the method: as §1

CSF1R = CSF1R (Homo sapiens, UniProt P07333); experiment: Competition binding assay, CSF1R Kd; parameters: made in house; conditions: competition binding
Summary of the method: as §1

FLT3 = target: T3, FLT3 (Homo sapiens, UniProt P36888); experiment: Competition binding assay, FLT3 Kd; conditions: competition binding
T3 construct: made in house
T3 sequence (P36888 27-993): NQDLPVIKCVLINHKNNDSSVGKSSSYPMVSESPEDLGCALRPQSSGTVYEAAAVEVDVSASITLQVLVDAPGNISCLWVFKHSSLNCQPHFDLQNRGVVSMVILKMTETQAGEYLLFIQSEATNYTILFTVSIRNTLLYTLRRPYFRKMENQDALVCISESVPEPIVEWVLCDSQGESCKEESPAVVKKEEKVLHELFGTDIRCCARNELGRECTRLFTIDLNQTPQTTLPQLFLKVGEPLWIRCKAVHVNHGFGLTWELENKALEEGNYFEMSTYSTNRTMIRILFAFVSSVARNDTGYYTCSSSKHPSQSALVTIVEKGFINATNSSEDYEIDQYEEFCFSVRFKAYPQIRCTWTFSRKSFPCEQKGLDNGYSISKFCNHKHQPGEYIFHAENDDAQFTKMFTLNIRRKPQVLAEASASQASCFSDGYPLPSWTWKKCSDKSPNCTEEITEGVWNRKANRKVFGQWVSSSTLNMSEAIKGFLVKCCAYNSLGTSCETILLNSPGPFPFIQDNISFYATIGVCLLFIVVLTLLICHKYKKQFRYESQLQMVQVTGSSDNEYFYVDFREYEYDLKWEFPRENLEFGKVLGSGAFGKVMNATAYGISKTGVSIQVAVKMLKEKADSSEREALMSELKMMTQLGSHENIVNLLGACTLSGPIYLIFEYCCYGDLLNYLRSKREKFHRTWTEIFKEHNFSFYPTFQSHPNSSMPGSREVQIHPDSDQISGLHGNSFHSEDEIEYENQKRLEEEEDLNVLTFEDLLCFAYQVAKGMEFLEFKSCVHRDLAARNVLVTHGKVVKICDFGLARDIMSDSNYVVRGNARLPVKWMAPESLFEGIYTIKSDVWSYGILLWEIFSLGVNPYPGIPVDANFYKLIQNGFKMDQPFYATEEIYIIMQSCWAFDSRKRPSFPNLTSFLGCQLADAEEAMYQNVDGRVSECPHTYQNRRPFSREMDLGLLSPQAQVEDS
Summary of the method: as §1

T1 sequence (P09619 33-1106): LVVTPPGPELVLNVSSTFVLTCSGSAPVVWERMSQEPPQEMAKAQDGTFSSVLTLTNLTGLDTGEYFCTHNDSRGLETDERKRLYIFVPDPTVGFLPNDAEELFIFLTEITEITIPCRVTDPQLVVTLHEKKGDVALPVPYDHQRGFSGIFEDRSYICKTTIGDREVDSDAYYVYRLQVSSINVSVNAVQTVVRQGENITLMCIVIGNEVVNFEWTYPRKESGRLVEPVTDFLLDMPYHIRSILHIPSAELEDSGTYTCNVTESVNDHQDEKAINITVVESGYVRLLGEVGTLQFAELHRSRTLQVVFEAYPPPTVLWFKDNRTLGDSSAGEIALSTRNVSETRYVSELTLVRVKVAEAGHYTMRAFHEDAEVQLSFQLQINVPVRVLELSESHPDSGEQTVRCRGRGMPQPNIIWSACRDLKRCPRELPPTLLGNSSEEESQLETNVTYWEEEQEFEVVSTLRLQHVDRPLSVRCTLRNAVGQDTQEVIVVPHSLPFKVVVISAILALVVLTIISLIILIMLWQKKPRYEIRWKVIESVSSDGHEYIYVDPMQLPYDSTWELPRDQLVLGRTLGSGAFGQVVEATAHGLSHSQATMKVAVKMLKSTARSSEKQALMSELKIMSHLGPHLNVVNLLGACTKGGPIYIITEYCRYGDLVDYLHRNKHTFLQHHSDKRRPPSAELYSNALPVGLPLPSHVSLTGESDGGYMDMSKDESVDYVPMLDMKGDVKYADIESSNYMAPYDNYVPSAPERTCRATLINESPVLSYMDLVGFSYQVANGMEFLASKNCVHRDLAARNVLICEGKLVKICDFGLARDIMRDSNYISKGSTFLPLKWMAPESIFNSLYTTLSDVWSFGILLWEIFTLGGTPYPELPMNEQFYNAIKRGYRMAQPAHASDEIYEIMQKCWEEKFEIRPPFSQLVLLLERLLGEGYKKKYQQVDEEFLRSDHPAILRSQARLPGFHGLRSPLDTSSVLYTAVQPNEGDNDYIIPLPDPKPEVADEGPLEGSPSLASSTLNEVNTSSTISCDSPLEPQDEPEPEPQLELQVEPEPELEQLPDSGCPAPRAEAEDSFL
T2 sequence (P10721 26-976): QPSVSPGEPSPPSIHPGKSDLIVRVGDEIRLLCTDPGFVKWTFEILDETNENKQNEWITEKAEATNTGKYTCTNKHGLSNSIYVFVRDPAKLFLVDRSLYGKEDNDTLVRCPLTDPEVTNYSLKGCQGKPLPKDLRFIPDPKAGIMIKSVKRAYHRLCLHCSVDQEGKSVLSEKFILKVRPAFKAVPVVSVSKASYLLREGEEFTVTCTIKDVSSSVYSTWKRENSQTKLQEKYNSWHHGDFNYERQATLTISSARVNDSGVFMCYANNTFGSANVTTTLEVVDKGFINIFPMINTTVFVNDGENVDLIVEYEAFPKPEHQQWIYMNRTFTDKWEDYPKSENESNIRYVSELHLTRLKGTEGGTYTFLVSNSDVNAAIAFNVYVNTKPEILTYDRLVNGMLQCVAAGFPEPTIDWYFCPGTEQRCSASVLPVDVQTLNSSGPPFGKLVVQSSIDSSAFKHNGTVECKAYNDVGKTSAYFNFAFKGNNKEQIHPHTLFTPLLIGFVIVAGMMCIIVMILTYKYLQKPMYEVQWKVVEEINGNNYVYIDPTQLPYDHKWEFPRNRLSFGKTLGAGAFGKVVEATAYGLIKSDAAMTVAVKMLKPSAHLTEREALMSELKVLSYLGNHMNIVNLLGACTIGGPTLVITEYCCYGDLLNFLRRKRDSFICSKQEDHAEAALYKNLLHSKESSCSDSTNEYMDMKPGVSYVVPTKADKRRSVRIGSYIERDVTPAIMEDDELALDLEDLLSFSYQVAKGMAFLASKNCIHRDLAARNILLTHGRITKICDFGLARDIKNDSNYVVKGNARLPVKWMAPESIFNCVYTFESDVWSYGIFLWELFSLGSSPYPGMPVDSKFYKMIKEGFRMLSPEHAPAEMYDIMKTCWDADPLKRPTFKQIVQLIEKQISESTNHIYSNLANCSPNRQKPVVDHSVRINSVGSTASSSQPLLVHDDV
Sequence of CSF1R (P07333 20-972): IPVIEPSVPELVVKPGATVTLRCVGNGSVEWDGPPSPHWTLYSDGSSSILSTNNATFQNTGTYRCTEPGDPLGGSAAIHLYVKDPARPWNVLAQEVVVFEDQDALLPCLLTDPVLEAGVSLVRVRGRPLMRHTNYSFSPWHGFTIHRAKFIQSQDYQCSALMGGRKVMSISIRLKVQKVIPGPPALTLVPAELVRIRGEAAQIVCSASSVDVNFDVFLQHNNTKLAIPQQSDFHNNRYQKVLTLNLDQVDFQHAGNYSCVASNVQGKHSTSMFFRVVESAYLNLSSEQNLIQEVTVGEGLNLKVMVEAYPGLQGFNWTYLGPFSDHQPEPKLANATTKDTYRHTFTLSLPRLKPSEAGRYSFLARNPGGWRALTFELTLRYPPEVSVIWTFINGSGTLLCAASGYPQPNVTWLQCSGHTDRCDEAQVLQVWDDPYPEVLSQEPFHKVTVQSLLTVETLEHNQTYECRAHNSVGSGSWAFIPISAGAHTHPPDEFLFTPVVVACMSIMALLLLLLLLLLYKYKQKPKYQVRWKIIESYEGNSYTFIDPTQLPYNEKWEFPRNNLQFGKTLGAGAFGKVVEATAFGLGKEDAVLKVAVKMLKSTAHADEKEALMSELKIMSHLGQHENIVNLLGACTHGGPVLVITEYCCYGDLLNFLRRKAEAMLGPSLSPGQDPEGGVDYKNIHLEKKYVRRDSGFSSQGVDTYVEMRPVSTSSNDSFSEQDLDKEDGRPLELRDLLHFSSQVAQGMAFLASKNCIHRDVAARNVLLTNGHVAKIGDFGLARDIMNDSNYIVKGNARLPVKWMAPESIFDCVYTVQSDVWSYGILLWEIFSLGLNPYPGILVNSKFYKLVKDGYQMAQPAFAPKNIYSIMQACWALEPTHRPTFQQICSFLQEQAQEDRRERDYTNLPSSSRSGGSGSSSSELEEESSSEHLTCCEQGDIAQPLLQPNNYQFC

SMILES | pKd (PDGFRβ) | Kinase specificity S(10) [1] | pKd (KIT) | pKd (CSF1R) | pKd (FLT3) | pIC50 (M-NFS-60 cells)
OC[C@H]1CC[C@H](Nc2nc3ccc(Cn4cnc5cc(F)cnc54)cc3s2)CC1 [Example 179, (trans-4-((6-((6-fluoro-3H-imidazo[4,5-b]pyridin-3-yl)methyl)benzo[d]thiazol-2-yl)amino)cyclohexyl)methanol] | ≥ 7.30 | B (0.01<B≤0.02) | ≥ 7.00 | 7.70 to 8.30 | 5.30 to 6.00 | 5.82 to 6.40
O[C@@H]1CCCC[C@H]1Nc1nc2ccc(Cn3cnc4cc(C5=CCCCC5)ccc43)cc2s1 [Example 184, (1R,2R)-2-((6-((5-(cyclohex-1-en-1-yl)-1H-benzo[d]imidazol-1-yl)methyl)benzo[d]thiazol-2-yl)amino)cyclohexanol] | 6.30 to 7.30 | A (A≤0.01) | ≥ 7.00 | 7.70 to 8.30 | 6.00 to 6.70 | 6.40 to 7.30
C=Cc1ccc2c(c1)ncn2Cc1ccc2nc(N[C@@H]3CCCC[C@H]3O)sc2c1 [Example 183, (1R,2R)-2-((6-((5-vinyl-1H-benzo[d]imidazol-1-yl)methyl)benzo[d]thiazol-2-yl)amino)cyclohexanol] | 6.30 to 7.30 | B (0.01<B≤0.02) | ≥ 7.00 | ≥ 8.30 | 6.00 to 6.70 | ≥ 7.30
O[C@@H]1CCCC[C@H]1Nc1nc2ccc(Cn3cnc4cnc(C(F)(F)F)nc43)cc2s1 [Example 105, (1R,2R)-2-((6-((2-(trifluoromethyl)-9H-purin-9-yl)methyl)benzo[d]thiazol-2-yl)amino)cyclohexanol] | 5.70 to 6.30 | A (A≤0.01) | 5.70 to 6.30 | 7.70 to 8.30 | 6.00 to 6.70 | 5.82 to 6.40
CS[C@@H]1CCCC[C@H]1Nc1nc2ccc(Cn3cnc4cc(F)cnc43)cc2s1 [Example 181, 6-((6-fluoro-3H-imidazo[4,5-b]pyridin-3-yl)methyl)-N-((1R,2R)-2-(methylthio)cyclohexyl)benzo[d]thiazol-2-amine] | ≥ 7.30 | B (0.01<B≤0.02) | 6.30 to 7.00 | 7.70 to 8.30 | 5.30 to 6.00 | 5.82 to 6.40
O[C@@H]1CCCC[C@H]1Nc1nc2ccc(Cc3cnc4ccc(Br)nn34)cc2s1 [Example 177, (1R,2R)-2-((6-((6-bromoimidazo[1,2-b]pyridazin-3-yl)methyl)benzo[d]thiazol-2-yl)amino)cyclohexanol] | ≥ 7.30 | C (C>0.02) | ≥ 7.00 | ≥ 8.30 | ≥ 6.70 | ≥ 7.30
CN1CCN(c2ccc3ncc(Cc4ccc5nc(N[C@@H]6CCCC[C@H]6O)sc5c4)n3n2)CC1 [Example 178, (1R,2R)-2-((6-((6-(4-methylpiperazin-1-yl)imidazo[1,2-b]pyridazin-3-yl)methyl)benzo[d]thiazol-2-yl)amino)cyclohexanol] | 5.70 to 6.30 | B (0.01<B≤0.02) | 5.70 to 6.30 | 7.70 to 8.30 | 6.00 to 6.70 | 5.82 to 6.40
CC(C)(O)C#Cc1cnc2c(c1)ncn2Cc1ccc2nc(N[C@@H]3CCCC[C@H]3O)sc2c1 [Example 104, (1R,2R)-2-((6-((6-(3-hydroxy-3-methylbut-1-yn-1-yl)-3H-imidazo[4,5-b]pyridin-3-yl)methyl)benzo[d]thiazol-2-yl)amino)cyclohexanol] | ≥ 7.30 | A (A≤0.01) | ≥ 7.00 | ≥ 8.30 | ≥ 6.70 | ≥ 7.30

Further lines, with some results ahead:

pKd (PDGFRβ) | Kinase specificity S(10) [1] | pKd (KIT) | pKd (CSF1R) | pKd (FLT3) | SMILES | pIC50 (M-NFS-60 cells)
5.70 to 6.30 | A (A≤0.01) | 6.30 to 7.00 | 7.30 to 7.70 | 5.30 to 6.00 | Fc1cnc2c(c1)ncn2Cc1ccc2nc(Nc3ccccc3)sc2c1 [Example 191, 6-((6-fluoro-3H-imidazo[4,5-b]pyridin-3-yl)methyl)-N-phenylbenzo[d]thiazol-2-amine] | < 5.82
5.70 to 6.30 | A (A≤0.01) | 5.70 to 6.30 | 7.30 to 7.70 | 5.30 to 6.00 | N#Cc1cc2ncn(Cc3ccc4nc(N[C@@H]5CCCC[C@H]5O)oc4c3)c2cc1Cl [Example 195, 6-chloro-1-((2-(((1R,2R)-2-hydroxycyclohexyl)amino)benzo[d]oxazol-6-yl)methyl)-1H-benzo[d]imidazole-5-carbonitrile] | 5.82 to 6.40
5.70 to 6.30 | A (A≤0.01) | 5.70 to 6.30 | 7.70 to 8.30 | 6.00 to 6.70 | Cc1cc(C)c2c(c1)ncn2Cc1ccc2nc(N[C@@H]3CCCC[C@H]3O)sc2c1 [Example 189] | 6.40 to 7.30
5.70 to 6.30 | A (A≤0.01) | < 5.70 | 7.70 to 8.30 | 5.30 to 6.00 | CN1CCN(c2ccn3c(Cc4ccc5nc(N[C@@H]6CCCC[C@H]6O)sc5c4)cnc3c2)CC1 [Example 188, (1R,2R)-2-((6-((7-(4-methylpiperazin-1-yl)imidazo[1,2-a]pyridin-3-yl)methyl)benzo[d]thiazol-2-yl)amino)cyclohexanol] | 5.82 to 6.40
5.70 to 6.30 | A (A≤0.01) | < 5.70 | 7.70 to 8.30 | < 5.30 | O[C@@H]1CCCC[C@H]1Nc1nc2ccc(Cc3cnc4cc(N5CCOCC5)ccn34)cc2s1 [Example 187, (1R,2R)-2-((6-((7-morpholinoimidazo[1,2-a]pyridin-3-yl)methyl)benzo[d]thiazol-2-yl)amino)cyclohexanol] | 5.82 to 6.40
≥ 7.30 | B (0.01<B≤0.02) | ≥ 7.00 | 7.70 to 8.30 | ≥ 6.70 | Cn1cc(-c2ccc3c(c2)ncn3Cc2ccc3nc(N[C@@H]4CCCC[C@H]4O)sc3c2)c(C(F)(F)F)n1 [Example 185, (1R,2R)-2-((6-((5-(1-methyl-3-(trifluoromethyl)-1H-pyrazol-4-yl)-1H-benzo[d]imidazol-1-yl)methyl)benzo[d]thiazol-2-yl)amino)cyclohexanol] | 6.40 to 7.30
5.70 to 6.30 | A (A≤0.01) | 5.70 to 6.30 | 7.30 to 7.70 | 6.00 to 6.70 | Cc1cc(Br)cc2ncn(Cc3ccc4nc(N[C@@H]5CCCC[C@H]5O)sc4c3)c12 [Example 190, (1R,2R)-2-((6-((5-bromo-7-methyl-1H-benzo[d]imidazol-1-yl)methyl)benzo[d]thiazol-2-yl)amino)cyclohexanol] | 6.40 to 7.30
≥ 7.30 | B (0.01<B≤0.02) | ≥ 7.00 | 7.70 to 8.30 | 6.00 to 6.70 | OC[C@H]1CCC[C@@H](Nc2nc3ccc(Cn4cnc5cc(F)cnc54)cc3s2)C1 [Example 194, ((1S,3R)-3-((6-((6-fluoro-3H-imidazo[4,5-b]pyridin-3-yl)methyl)benzo[d]thiazol-2-yl)amino)cyclohexyl)methanol] | 6.40 to 7.30
≥ 7.30 | A (A≤0.01) | ≥ 7.00 | 7.70 to 8.30 | 5.30 to 6.00 | O[C@@H]1[C@H](O)CCC[C@H]1Nc1nc2ccc(Cn3cnc4cc(F)cnc43)cc2s1 [Example 193, (1R,2S,3R)-3-((6-((6-fluoro-3H-imidazo[4,5-b]pyridin-3-yl)methyl)benzo[d]thiazol-2-yl)amino)cyclohexane-1,2-diol] | ≥ 7.30
≥ 7.30 | B (0.01<B≤0.02) | 6.30 to 7.00 | 7.70 to 8.30 | 5.30 to 6.00 | OC[C@@H]1CCC[C@@H](Nc2nc3ccc(Cn4cnc5cc(F)cnc54)cc3s2)C1 [Example 192, ((1R,3R)-3-((6-((6-fluoro-3H-imidazo[4,5-b]pyridin-3-yl)methyl)benzo[d]thiazol-2-yl)amino)cyclohexyl)methanol] | 5.82 to 6.40
